Values quoted from earlier work in US20090054334A1, “Combinatorial improvement of bifunctional drug properties” (priority 2007, published 2009).

Legend:
[1] = in vivo
[2] = in vivo; remark: listed apart in the source

Compound | bioavailability [1] [%] | blood-brain barrier crossing [1] | half life [1] [h] | distribution into protected cellular compartments, in the blood [2]
CCC(C)(C)C(=O)C(=O)N1CCC[C@H]1C(=O)O [GPI-1485] | 50 | crosses the blood-brain barrier | – | –
C=CC[C@@H]1/C=C(\C)C[C@H](C)C[C@H](OC)[C@H]2O[C@@](O)(C(=O)C(=O)N3CCCC[C@H]3C(=O)O[C@H](/C(C)=C/[C@@H]3CC[C@@H](O)[C@H](OC)C3)[C@H](C)[C@@H](O)CC1=O)[C@H](C)C[C@@H]2OC [FK506] | 20 | – | 11.3 | 72-98%
